Our source for the IC50 values is patent publication US8975252B2, “Morpholine derivative” (Shanghai Pharmaceuticals Holding Co., Ltd., priority 2007, dated 2015).

Counter-ions that a name gives are not always drawn. Like-named read-outs stand apart in the source and are kept apart here.

This experiment deals with Recombinant human renin (Homo sapiens (Human), UniProt P00797). The experiment is described as follows: Inhibitory activity against human renin (fluorogenic synthetic peptide substrate). It is filed as biochemical. As for the experimental part:
Inhibitory Activity Against Human Renin
A renin substrate of synthetic peptide (Nma-KHPFH LVIHK(Dnp)-NH2) and test compound were mixed, and fluorescence intensity was assayed using a fluorophotometer before starting an enzymatic reaction (exciting wavelength: 340 nm, measuring wavelength: 460 nm). Recombinant human renin was added and the mixture was incubated at 37° C. for an hour, and the fluorescence intensity was measured after the reaction using a fluorophotometer (exciting wavelength: 340 nm, measuring wavelength: 460 nm). Renin activity was evaluated on the ground of fluorescence intensity which was obtained by deduction of the intensity before the reaction from the intensity after the reaction, and 50% inhibitory concentration (IC50) was calculated from renin activities under the existence of various concentration of the tested compound.

The mark [1] stands for this setting: recombinant human renin, substrate Nma-KHPFH LVIHK(Dnp)-NH2, 37° C. for an hour, fluorescence, read-out: Inhibitory Activity against human Renin(IC50).

Sequence of Recombinant human renin (P00797 67-406): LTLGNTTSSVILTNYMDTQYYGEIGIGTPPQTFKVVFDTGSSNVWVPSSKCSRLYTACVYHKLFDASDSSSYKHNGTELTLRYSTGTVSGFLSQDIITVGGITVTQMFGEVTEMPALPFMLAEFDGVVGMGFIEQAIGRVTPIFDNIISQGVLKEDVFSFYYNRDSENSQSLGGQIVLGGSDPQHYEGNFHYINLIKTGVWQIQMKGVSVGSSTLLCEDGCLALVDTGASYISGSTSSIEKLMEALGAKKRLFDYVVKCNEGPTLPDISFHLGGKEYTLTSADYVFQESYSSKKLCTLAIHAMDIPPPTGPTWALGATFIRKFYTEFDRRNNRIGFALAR

The term IC50 denotes the concentration at which inhibition is half-maximal. Take `COCCCOc1cc(CN(C(=O)[C@H]2CNCCO2)C2CC2)ccc1OC` [(2R)—N-cyclopropyl-N-[4-methoxy-3-(3-methoxypropoxy)benzyl]morpholine-2-carboxamide hydrochloride]: where the note is “assay for renin-inhibition, read-out: renin-inhibition IC50”, the IC50 was under 1000 nM.

On to `COCCCn1cc(CN(C(=O)[C@H]2CNCCO2)C2CC2)c2ccccc21` [Example 39], for which the IC50 under setting [1] is 13 nM.

`COCCCOc1cc(CN(C(=O)[C@H]2CNCCO2)C2CC2)cc2ccccc12` [Example 4, (2R)—N-cyclopropyl-N-{[4-(3-methoxypropoxy)-2-naphthyl]methyl}morpholin-2-carboxamide hydrochloride]: the IC50 under setting [1] was determined as 30.2 nM.
